Data from patent US20050037949A1, “Mannose binding lectin and uses thereof” (priority 2002, published 2005).
Non-standard residues stand in square brackets, D forms with d. No end group written: not given here. *: point of attachment. Dnp = O=[N+]([O-])c1ccc(*)c([N+](=O)[O-])c1; 2Abz = Nc1ccccc1C(=O)O

Experiments:
[1] = system: MASPs in purified MBL-MASP complex; assay: Substrate cleavage assay: kinetic constants of MASP proteolytic activity on synthetic C4-based substrates; format: biochemical; details: proteolytic activity of MASPs in purified MBL-MASP complex on the synthetic substrate; sigmoidal kinetics
Method: For quantitative measurements, typically the signal emitted by the label is measured from the beginning of the reaction and the results used to obtain an initial rate. Substrates consisting only of the residues N-terminal to the cleavage site of C4 show normal Michaelis-Menten kinetics for their cleavage by both C1s and the MBL-MASP complex. This means that the dependence of the initial velocity for the cleavage reaction on substrate concentration can be described by a rectangular hyperbola and the constants Km (Michaelis constant which equates to the affinity between enzyme and substrate) and Vmax (maximal velocity of the reaction) can be derived from a non-linear regression fit of the data. […]
The substrate (2Abz-[…]-Lys(Dnp)-NH2) includes the four amino acids before and after the C4 cleavage site and an aminobenzoic acid (Abz) fluorescent group attached to its N-terminal end. […] The change in fluorescence can then be measured and is proportional to the proteolytic activity of the enzyme.
The substrate and enzymes (C1s (10 μg/mL) or purified MBL material) are incubated for several minutes in a fluorescence plate reader set at 37° C. 100 μL of diluted substrate is then transferred into wells containing 100 μL diluted enzyme (C1s or purified MBL material) and the kinetics of fluorescence is measured as follows: excitation=320 nm; emission=420 nm. […]

[2] = system: C4b deposition from MBL-deficient human serum on solid-phase mannan; assay: Functional complement (C4) deposition assay; format: biochemical; details: for Complement activation capacity (in words): Example 4 titration, 1-100 μg/ml
Method: All quantitation assays were standardised using an international, primary standard pool serum (Statens Serum Institut, Copenhagen, Denmark), containing 3.3 μg MBL/ml serum. For the sandwich ELISA and the C4 deposition assay, a standard curve was made with 1:25, 1:50, 1:75, 1:100, 1:150 and 1:200 dilutions of this serum, tested in triplicate. Standard dilutions for the mannan binding ELISA were 1:25, 1:50, 1:100, 1:150, 1:200, 1:300 and 1:400. Diluents were as detailed below. An in-house secondary control was prepared from pooled normal donor plasma and run in triplicate on each test plate, the results plotted for each run. Results of any test runs, in which values obtained for the in-house control MBL were outside +/−2SD from the previously determined mean value, led to rejection of the whole run. Run to run standard curves were overlayed to ensure a constant slope and thus provide another sensitive means of quality control.
Microtitre plates (as above) were coated overnight at 4° C. with 1 μg/mL mannan (Sigma-Aldrich Pty Ltd, Castle Hill, Australia) in fresh 50 mM carbonate-bicarbonate buffer, pH 9.6. Normal donor plasmas were tested in triplicate, diluted to 1:25 in TBST with 15 mM CaCl2, pH 7.2 which was also the wash buffer. A 1:10 dilution was also tested and interpreted only to confirm low or near absent levels of C4 deposition in donors with low amounts of MBL. After 90 minutes at 22° C., wells were washed 5 times and MBL-deficient human serum (completely deficient in MBL, obtained with informed consent) diluted 1:20 in barbital buffer, […], 10 mM sodium barbitone and 5 mM CaCl2 was added to wells and incubated at 22° C. for 30 minutes to enable complement activation. Wells were washed 5 times and biotinylated rabbit anti-human C4 (Sigma-Aldrich Pty Ltd) biotinylated using Biotin Tag (Sigma-Aldrich Pty Ltd) which was added at 1:1500 in TBST. Following incubation at 22° C. for 90 minutes, wells were washed 5 times and 1:500 ExtrAvidin peroxidase (Sigma-Aldrich Pty Ltd) in TBST was added and incubated at 22° C. for 40 minutes. Colour development and reading was as for the quantitation assays.
1 μl of Statens Serum Institut (SSI) MBL Standard was arbitrarily assigned 1 unit of C4 deposition activity. The assay was standardised against the SSI standard. Between run CV for the assay at 1:25 was 9.4%.
The positive control for MASP-2 activity was MASP containing, affinity-purified MBL complex. All fractions obtained in Example 1 were considered MASP-depleted with MASP activity measured as slope/sec less than 2.3 (range 0.5-2.3). […] Both MASP-depleted fractions and the MBL-MASP complex were titrated to provide MBL protein concentrations at 1 to 100 μg/ml. Fractions were assayed in parallel in the mannan-binding and C4-deposition assays as described in this document. The result from the Mannan-binding assay was plotted against C4 activity for each fraction.
The fractions supplied in Example 3 were pooled according to total protein concentration. […] The two MASP-depleted MBL pools were again titrated in the range of 1-100 μg/ml in parallel with the MBL-MASP complex. All samples were assayed on both the Mannan-binding and C4-deposition assays in parallel. Actual MBL quantification (mannan-binding assay) results were graphed against corresponding C4 activation capability for the fraction.

2Abz-GLQRALEI-Lys(Dnp)-NH2 ([2Abz]GLQRALEIK(Dnp)-NH2; N-terminus assumed; SMILES CC[C@H](C)[C@H](NC(=O)[C@H](CCC(=O)O)NC(=O)[C@H](CC(C)C)NC(=O)[C@H](C)NC(=O)[C@H](CCCNC(=N)N)NC(=O)[C@H](CCC(N)=O)NC(=O)[C@H](CC(C)C)NC(=O)CNC(=O)c1ccccc1N)C(=O)N[C@@H](CCCCNc1ccc([N+](=O)[O-])cc1[N+](=O)[O-])C(N)=O) [C4 (P4-P4′), quenched fluorescent substrate with the four amino acids before and after the C4 cleavage site]
Affinity constant K0.5 [1]: 6.50 ± 0.32 µM

MASP Pool 8-9: pool of MASP-depleted MBL fractions 8 and 9, total protein 35 μg/ml
Complement activation capacity (in words) [2]: reached the high assay limit
C4 ([2]; MBL 1.122 ug/mL, Table 3): 0.049 U/ul
C4 ([2]; MBL 2.032 ug/mL, Table 3): 0.108 U/ul
C4 ([2]; MBL 4.278 ug/mL, Table 3): 0.189 U/ul
C4 ([2]; MBL 6.506 ug/mL, Table 3): 0.31 U/ul
C4 ([2]; MBL 7.362 ug/mL, Table 3): 0.403 U/ul
C4 ([2]; MBL 8.995 ug/mL, Table 3): 0.435 U/ul
C4 ([2]; MBL 10.205 ug/mL, Table 3): 0.48 U/ul
C4 ([2]; MBL 12.718 ug/mL, Table 3): 0.552 U/ul
C4 ([2]; MBL 20 ug/mL, Table 3): 0.595 U/ul
C4 ([2]; MBL 30 ug/mL, Table 3): 0.776 U/ul
C4 ([2]; MBL 35 ug/mL, Table 3): 0.969 U/ul

MASP-depleted Frac. 3: fraction 3 of purified MASP-depleted MBL from the Example 1 Sephacryl S-300 column, 40 μg/mL
C4 ([2]; MBL 1.02 ug/mL, Table 2): 0.107 U/ul
C4 ([2]; MBL 2.1 ug/mL, Table 2): 0.202 U/ul
C4 ([2]; MBL 2.57 ug/mL, Table 2): 0.359 U/ul
C4 ([2]; MBL 5.65 ug/mL, Table 2): 0.568 U/ul
C4 ([2]; MBL 7.97 ug/mL, Table 2): 0.761 U/ul
C4 ([2]; MBL 10.53 ug/mL, Table 2): 0.818 U/ul
C4 ([2]; MBL 12 ug/mL, Table 2): xs
C4 ([2]; MBL 16 ug/mL, Table 2): xs
C4 ([2]; MBL 20 ug/mL, Table 2): xs
C4 ([2]; MBL 30 ug/mL, Table 2): xs
C4 ([2]; MBL 40 ug/mL, Table 2): xs

MASP-depleted Frac. 5: fraction 5 of purified MASP-depleted MBL from the Example 1 Sephacryl S-300 column, 80 μg/mL
C4 ([2]; MBL 1.32 ug/mL, Table 2): 0.081 U/ul
C4 ([2]; MBL 2.49 ug/mL, Table 2): 0.137 U/ul
C4 ([2]; MBL 5.11 ug/mL, Table 2): 0.304 U/ul
C4 ([2]; MBL 7.83 ug/mL, Table 2): 0.417 U/ul
C4 ([2]; MBL 8.79 ug/mL, Table 2): 0.465 U/ul
C4 ([2]; MBL 10 ug/mL, Table 2): 0.671 U/ul
C4 ([2]; MBL 12 ug/mL, Table 2): 0.716 U/ul
C4 ([2]; MBL 16 ug/mL, Table 2): 0.805 U/ul
C4 ([2]; MBL 20 ug/mL, Table 2): 0.762 U/ul
C4 ([2]; MBL 30 ug/mL, Table 2): 0.906 U/ul
C4 ([2]; MBL 40 ug/mL, Table 2): xs
C4 ([2]; MBL 80 ug/mL, Table 2): xs

MASP-depleted Pool 3-7: pool of MASP-depleted MBL fractions 3-7, total protein 85 μg/ml
Complement activation capacity (in words) [2]: reached excess
C4 ([2]; MBL 1.124 ug/mL, Table 3): 0.043 U/ul
C4 ([2]; MBL 1.677 ug/mL, Table 3): 0.104 U/ul
C4 ([2]; MBL 3.905 ug/mL, Table 3): 0.25 U/ul
C4 ([2]; MBL 5.617 ug/mL, Table 3): 0.38 U/ul
C4 ([2]; MBL 7.151 ug/mL, Table 3): 0.506 U/ul
C4 ([2]; MBL 7.796 ug/mL, Table 3): 0.55 U/ul
C4 ([2]; MBL 9.377 ug/mL, Table 3): 0.596 U/ul
C4 ([2]; MBL 14.045 ug/mL, Table 3): 0.718 U/ul
C4 ([2]; MBL 20 ug/mL, Table 3): 0.825 U/ul
C4 ([2]; MBL 40 ug/mL, Table 3): 0.954 U/ul
C4 ([2]; MBL 80 ug/mL, Table 3): xs
C4 ([2]; MBL 85 ug/mL, Table 3): xs
